Read-outs that look alike come from different tables or passages of the source.
Assays:
human αVβ6 = molecular target: T1, human αVβ6 (Homo sapiens, UniProt P06756+P18564); test: human αVβ6 HTRF binding assay
T1 construct: purchased R & D systems 3817-AV
Outline: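 HTRF binding format with biotinylated integrin, FITC-fibronectin and streptavidin-terbium, run in 20 mM Tris pH 7.4, 1 mM MgCl2, 1 mM MnCl2, 0.01% Tween 20, 0.01% BSA. A SPA-based binding assay was an alternative.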

human αVβ1 = human αVβ1 (Homo sapiens, UniProt P05556+P06756); test: human αVβ1 HTRF binding assay
Procedure: (§1) All binding assays used the HTRF (homogeneous time resolved fluorescence) technology from Cisbio International, therefore all assays are described as HTRF binding assays. The assay results for the Examples are listed above together with the characterization data. The HTRF binding assays are established for the following integrins: human αVβ6, human αVβ1, human αVβ3, human αVβ5, and human αVβ8. All assays used the following assay buffer: 20 mM Tris, pH 7.4, 1 mM MgCl2, 1 mM MnCl2, 0.01% Tween 20, and 0.01% BSA. Alternatively, a SPA-based assay was used for evaluation of receptor binding.
(§2) […]

human αVβ3 = human αVβ3 (Homo sapiens, UniProt P05106+P06756); test: human αVβ3 HTRF binding assay
Procedure: as §1, §2

human αVβ5 = human αVβ5 (Homo sapiens, UniProt P06756+P18084); test: human αVβ5 HTRF binding assay
Procedure: as §1, with “binding. […]” for “binding.”

human αVβ8 = human αVβ8 (Homo sapiens, UniProt P06756+P26012); test: human αVβ8 HTRF binding assay
Procedure: as §1, with “binding. […]” for “binding.”

T1 sequence (P06756 31-992 limits assumed): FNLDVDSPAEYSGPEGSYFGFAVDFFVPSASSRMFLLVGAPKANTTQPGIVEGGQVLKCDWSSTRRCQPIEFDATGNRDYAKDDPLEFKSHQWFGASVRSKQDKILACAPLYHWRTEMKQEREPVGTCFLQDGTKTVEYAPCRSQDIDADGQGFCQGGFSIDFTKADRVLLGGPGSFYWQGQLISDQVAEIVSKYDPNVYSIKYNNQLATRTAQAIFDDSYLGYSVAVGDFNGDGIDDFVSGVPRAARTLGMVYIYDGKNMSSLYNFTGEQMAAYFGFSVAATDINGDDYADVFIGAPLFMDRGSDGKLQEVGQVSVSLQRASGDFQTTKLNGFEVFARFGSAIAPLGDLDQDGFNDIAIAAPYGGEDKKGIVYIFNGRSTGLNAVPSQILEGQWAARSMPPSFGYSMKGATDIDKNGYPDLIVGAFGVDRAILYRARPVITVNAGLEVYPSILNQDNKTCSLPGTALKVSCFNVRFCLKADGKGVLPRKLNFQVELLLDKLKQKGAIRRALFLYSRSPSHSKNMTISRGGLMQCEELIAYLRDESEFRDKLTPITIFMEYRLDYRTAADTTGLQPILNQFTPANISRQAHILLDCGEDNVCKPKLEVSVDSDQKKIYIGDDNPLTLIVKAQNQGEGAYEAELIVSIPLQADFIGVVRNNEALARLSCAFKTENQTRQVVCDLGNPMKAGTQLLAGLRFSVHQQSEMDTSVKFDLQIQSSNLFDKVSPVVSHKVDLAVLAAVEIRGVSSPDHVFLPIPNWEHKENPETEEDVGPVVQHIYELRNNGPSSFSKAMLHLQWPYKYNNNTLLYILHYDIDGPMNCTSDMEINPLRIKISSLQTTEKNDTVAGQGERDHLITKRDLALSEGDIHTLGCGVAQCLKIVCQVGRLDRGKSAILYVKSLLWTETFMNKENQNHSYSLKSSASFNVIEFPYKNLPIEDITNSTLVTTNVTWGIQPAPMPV
T1 sequence (P18564 22-707 limits assumed): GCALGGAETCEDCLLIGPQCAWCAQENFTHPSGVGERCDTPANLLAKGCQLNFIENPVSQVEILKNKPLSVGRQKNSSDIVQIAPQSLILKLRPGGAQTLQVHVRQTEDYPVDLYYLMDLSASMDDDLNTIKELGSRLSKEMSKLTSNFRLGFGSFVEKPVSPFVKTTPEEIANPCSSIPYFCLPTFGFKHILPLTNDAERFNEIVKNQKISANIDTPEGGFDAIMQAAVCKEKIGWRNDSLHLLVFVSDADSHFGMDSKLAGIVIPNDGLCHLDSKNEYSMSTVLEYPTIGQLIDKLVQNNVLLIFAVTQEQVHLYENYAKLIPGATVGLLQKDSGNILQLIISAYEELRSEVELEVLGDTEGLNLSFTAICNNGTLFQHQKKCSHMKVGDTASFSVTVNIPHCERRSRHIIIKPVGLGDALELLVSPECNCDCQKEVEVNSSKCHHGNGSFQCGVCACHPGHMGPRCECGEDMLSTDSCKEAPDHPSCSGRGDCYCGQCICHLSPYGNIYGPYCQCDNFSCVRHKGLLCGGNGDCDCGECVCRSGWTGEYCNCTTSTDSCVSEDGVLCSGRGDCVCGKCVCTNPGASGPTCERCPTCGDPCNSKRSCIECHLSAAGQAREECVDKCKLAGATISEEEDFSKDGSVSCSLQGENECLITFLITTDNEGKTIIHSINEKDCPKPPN
Sequence of human αVβ8 (P06756 31-992 limits assumed): as the sequence (P06756 31-992 limits assumed) above
Sequence of human αVβ8 (P26012 43-684 limits assumed): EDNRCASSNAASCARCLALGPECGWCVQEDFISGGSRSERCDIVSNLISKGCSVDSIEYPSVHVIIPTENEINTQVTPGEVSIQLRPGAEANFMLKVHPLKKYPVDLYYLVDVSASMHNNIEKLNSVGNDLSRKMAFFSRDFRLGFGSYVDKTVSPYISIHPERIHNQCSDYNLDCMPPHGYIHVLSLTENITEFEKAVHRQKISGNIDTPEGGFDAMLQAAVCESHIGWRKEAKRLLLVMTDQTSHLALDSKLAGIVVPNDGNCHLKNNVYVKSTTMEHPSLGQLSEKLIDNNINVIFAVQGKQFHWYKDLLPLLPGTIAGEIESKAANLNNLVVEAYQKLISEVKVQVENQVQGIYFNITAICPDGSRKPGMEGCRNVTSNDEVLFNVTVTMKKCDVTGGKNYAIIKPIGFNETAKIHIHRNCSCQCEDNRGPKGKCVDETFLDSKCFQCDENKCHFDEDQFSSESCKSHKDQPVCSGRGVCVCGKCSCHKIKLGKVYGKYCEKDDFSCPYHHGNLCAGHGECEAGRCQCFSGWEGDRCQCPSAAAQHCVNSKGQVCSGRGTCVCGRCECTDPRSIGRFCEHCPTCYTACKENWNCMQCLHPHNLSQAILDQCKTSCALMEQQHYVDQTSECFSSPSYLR
Sequence of human αVβ5 (P06756 31-992 limits assumed): as the sequence (P06756 31-992 limits assumed) above
Sequence of human αVβ5 (P18084 24-719 limits assumed): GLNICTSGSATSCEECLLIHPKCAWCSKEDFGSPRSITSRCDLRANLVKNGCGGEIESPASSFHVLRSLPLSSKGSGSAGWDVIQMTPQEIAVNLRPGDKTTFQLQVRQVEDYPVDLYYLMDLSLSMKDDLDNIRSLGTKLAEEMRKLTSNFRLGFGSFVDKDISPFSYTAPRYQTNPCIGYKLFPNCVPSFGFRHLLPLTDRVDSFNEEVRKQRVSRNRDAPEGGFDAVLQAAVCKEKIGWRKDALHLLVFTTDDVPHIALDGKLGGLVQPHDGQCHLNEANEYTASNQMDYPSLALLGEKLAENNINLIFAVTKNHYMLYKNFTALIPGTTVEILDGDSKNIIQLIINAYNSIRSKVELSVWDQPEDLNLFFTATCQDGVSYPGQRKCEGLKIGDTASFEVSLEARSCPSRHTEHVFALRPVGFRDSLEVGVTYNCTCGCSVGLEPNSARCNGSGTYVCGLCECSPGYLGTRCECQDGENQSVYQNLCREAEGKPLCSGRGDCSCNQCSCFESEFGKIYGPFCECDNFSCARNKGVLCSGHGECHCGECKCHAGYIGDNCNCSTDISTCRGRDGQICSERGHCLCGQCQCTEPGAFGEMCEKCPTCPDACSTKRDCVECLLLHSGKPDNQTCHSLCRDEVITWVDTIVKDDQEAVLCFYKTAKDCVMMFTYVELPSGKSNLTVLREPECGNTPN
Sequence of human αVβ1 (P06756 31-992 limits assumed): as the sequence (P06756 31-992 limits assumed) above
Sequence of human αVβ1 (P05556 21-728 limits assumed): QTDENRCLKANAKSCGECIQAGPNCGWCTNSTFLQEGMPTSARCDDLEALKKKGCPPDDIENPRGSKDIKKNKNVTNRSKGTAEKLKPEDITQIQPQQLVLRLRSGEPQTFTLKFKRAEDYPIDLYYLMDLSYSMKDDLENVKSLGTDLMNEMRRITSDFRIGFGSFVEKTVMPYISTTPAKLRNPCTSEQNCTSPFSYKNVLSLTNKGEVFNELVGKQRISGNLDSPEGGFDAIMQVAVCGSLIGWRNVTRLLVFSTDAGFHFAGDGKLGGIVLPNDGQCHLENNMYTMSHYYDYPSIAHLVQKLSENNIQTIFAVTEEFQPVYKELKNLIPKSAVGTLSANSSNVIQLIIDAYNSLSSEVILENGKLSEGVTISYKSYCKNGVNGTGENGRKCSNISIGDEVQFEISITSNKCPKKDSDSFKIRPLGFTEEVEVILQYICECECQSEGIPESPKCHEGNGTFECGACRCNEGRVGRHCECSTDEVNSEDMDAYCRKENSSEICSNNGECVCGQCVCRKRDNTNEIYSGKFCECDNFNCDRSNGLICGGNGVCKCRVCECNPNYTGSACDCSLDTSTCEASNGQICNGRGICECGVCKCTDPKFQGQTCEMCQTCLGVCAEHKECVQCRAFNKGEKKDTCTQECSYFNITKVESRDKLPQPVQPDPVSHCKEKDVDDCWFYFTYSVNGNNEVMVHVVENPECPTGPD
Sequence of human αVβ3 (P06756 31-992 limits assumed): as the sequence (P06756 31-992 limits assumed) above
Sequence of human αVβ3 (P05106 27-718 limits assumed): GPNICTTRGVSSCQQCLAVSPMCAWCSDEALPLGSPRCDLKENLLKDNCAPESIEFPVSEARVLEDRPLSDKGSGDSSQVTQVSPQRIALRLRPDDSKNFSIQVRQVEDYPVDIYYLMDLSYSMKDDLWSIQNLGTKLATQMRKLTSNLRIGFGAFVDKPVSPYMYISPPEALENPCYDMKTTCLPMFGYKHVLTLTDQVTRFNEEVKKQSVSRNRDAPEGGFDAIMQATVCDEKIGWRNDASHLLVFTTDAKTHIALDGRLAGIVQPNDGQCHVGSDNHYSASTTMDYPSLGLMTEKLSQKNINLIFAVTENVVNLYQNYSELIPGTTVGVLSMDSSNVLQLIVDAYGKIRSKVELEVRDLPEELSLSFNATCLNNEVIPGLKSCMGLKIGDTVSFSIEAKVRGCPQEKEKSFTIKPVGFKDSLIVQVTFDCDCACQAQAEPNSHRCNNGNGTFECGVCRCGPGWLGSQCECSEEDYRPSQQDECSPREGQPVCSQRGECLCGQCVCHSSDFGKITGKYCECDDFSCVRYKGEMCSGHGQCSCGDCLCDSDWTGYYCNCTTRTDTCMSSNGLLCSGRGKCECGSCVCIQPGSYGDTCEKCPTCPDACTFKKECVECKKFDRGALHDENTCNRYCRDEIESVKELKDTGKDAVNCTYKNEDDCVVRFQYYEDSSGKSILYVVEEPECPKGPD

Row | Structure (SMILES) | IC50 (human αVβ6) | IC50 (human αVβ1) | IC50 (human αVβ3; read-out: Human αVβ3 IC50) | IC50 (human αVβ5) | IC50 (human αVβ8) | IC50 (human αVβ3; printed as αVβ4, read-out: Human αVβ4 IC50)
1 | O=C(N[C@H](CNC(=O)c1cn(CCc2ccc3c(n2)NCCC3)cn1)C(=O)O)OCc1ccccc1 [Example 121] | 2.3 nM | 77 nM | 1.6 nM | 0.3 nM | 246 nM | –
2 | Cc1cc(C)c(S(=O)(=O)N[C@H](CNC(=O)c2cn(CCc3ccc4c(n3)NCCC4)cn2)C(=O)O)c(C)c1 [Example 114] | 2 nM | – | – | 0.5 nM | 156 nM | 4.4 nM
3 | Cc1cc(C)c(S(=O)(=O)N[C@@H](CNC(=O)c2ncn(CCc3ccc4c(n3)NCCC4)n2)C(=O)O)c(C)c1 [Example 123] | 2 nM | 126 nM | 2.1 nM | 902 nM | 152 nM | –
4 | O=C(N[C@@H](CNC(=O)c1cnn(CCc2ccc3c(n2)NCCC3)c1)C(=O)O)OCc1ccccc1 [Example 12, (S)-2-(((Benzyloxy)carbonyl)amino)-3-(1-(2-(5,6,7,8-tetrahydro-1,8-naphthyridin-2-yl)ethyl)-1H-pyrazole-4-carboxamido)propanoic acid] | 1.1 nM | – | 2.1 nM | 0.2 nM | 49 nM | –
5 | Cc1cc(C)c(S(=O)(=O)N[C@@H](CNC(=O)c2ccn(CCc3ccc4c(n3)NCCC4)c2)C(=O)O)c(C)c1 [Example 119] | 0.5 nM | 6.3 nM | 1.5 nM | 0.2 nM | 31 nM | –
6 | Cc1cc(C)c(S(=O)(=O)N[C@@H](CNC(=O)c2cnn(CCc3ccc4c(n3)NCCC4)c2)C(=O)O)c(C)c1 [Example 10, (S)-3-(1-(2-(5,6,7,8-Tetrahydro-1,8-naphthyridin-2-yl)ethyl)-1H-pyrazole-4-carboxamido)-2-((2,4,6-trimethylphenyl)sulfonamido)propanoic acid] | 0.5 nM | 6.3 nM | 1.9 nM | 0.2 nM | 14 nM | –
7 | Cc1cc(C)c(S(=O)(=O)N[C@@H](CNC(=O)c2ccn(CCc3ccc4c(n3)NCCC4)n2)C(=O)O)c(C)c1 [Example 112] | 1 nM | 45 nM | 2 nM | 0.4 nM | 115 nM | –
8 | Cc1cc(C)c(S(=O)(=O)N[C@@H](CNC(=O)c2cnn(CCc3ccc4c(n3)NCCC4)n2)C(=O)O)c(C)c1 [Example 113] | 1.3 nM | 111 nM | 3 nM | 0.3 nM | 57 nM | –
9 | CCCCOC(=O)N[C@@H](CNC(=O)c1cnn(CCc2ccc3c(n2)NCCC3)c1)C(=O)O [Example 20, (S)-2-((Butoxycarbonyl)amino)-3-(1-(2-(5,6,7,8-tetrahydro-1,8-naphthyridin-2-yl)ethyl)-1H-pyrazole-4-carboxamido)propanoic acid] | 1.1 nM | 27 nM | 1.8 nM | 0.2 nM | 86 nM | –
10 | COc1ccc([C@H](CC(=O)O)NC(=O)c2cnn(CCc3ccc4c(n3)NCCC4)c2-c2ccccc2)cc1F [Example 91] | 410 nM | – | – | – | – | –
11 | O=C(O)CC1(NC(=O)c2cnn(CCc3ccc4c(n3)NCCC4)c2)Cc2ccccc2C1 [Example 109] | 6440 nM | – | – | – | – | –
12 | CCCCS(=O)(=O)N[C@@H](CNC(=O)c1cnn(CCc2ccc3c(n2)NCCC3)c1)C(=O)O [Example 124] | 2.6 nM | – | – | – | – | –
13 | Cc1cc(C)c(S(=O)(=O)N[C@@H](CNC(=O)c2cn(CCc3ccc4c(n3)NCCC4)nn2)C(=O)O)c(C)c1 [Example 111] | 0.8 nM | 46 nM | 6.4 nM | 1.1 nM | 63 nM | –
14 | C#CCOC(=O)N[C@@H](CNC(=O)c1cnn(CCc2ccc3c(n2)NCCC3)c1)C(=O)O [Example 136] | 2 nM | – | – | – | – | –

From patent publication US10851098B2, “Azole amides and amines as alpha v integrin inhibitors” (BRISTOL-MYERS SQUIBB COMPANY, priority 2016, dated 2020)
